Measured values as given in patent US10154813B1, “Method and apparatus for patient skin color monitoring and drug efficacy measurement” (priority 2017, dated 2018).

Test system: microvascular endothelium (skin, right arm, anterior position) of Congestive Heart Failure patients
Experiment: Skin colorimetry (a, b, L) before and after application of “μ” in Congestive Heart Failure patients on Valsartan, monthly for 9 months
Type: in vivo, human
Parameters: key to a. Wet after “μ”: a = red/green colour coordinate (colorimeter); key to b (Wet): b = yellow/blue colour coordinate (colorimeter)
Settings: for L / a / b: baseline before μ; for L (Wet) / a. Wet after “μ” / b (Wet): wet after μ
Description: As stated above, one available quantitative color system is the L*a*b* color space or Hunter L/a/b color space, which can be visualized as a rectangular 3D coordinate system. L indicates lightness, a is the red/green coordinate, and b is the yellow/blue coordinate. L can have a value from 0 (black) to 100 (perfect reflection). The a and b axes have no numerical limits. Coordinate a is positive when red, and negative when green. Positive b is yellow, and negative b is blue. Colors can be described numerically using numerical values for L, a, and b. Differences between two colors can be quantified for each of the individual L/a/b values (ΔL, Δa, Δb). Overall differences between two colors can be derived numerically based on the three Δ values.
μ=drug applied before colorimeter and/or spectrophotometer measurements.
L1, a1, b1=Initial measurement.
L2, a2, b2=Measurement with μ applied. L2−L1=ΔLμ(L2 minus L1)=change in lightness and darkness(+=lighter,−=darker) a2−a1=Δaμ(a2 minus a1)=change in red and green(+=redder,−=greener) b2−b1=Δbμ(b2 minus b1)=change in yellow and blue(+=yellower,−=bluer)
With reference to the tables below and to FIG. 18, the three different patients (Patient A, Patient B, and Patient C) had new diagnosis of Congestive Heart Failure (CHF). Patient A, B, C have diastolic and systolic heart failure with an ejection fraction of 35% with normal coronary artery disease by angiography. All three patients were started on an angiotensin receptor blocker Valsartan and followed continuously every month for 9 months. The a, b, L were calculated before and after the “μ” has been applied shown in color red. The blue indicates the baseline. At the initiation of the CHF medication Valsartan, the patient has a normal response of the microvascular endothelium after the application of “μ” in the calculations of a, b, L. All colorimetric and spectrophotometric calculations are performed at the same location on the right arm, in the anterior position in all three patients continuously for 9 months. The titration of Valsartan was maximized in all three patients. […] This occurs because it is the desired effect of the CHF medication in the above patients over the period of 9 months. The current standard of care is to improve the heart function in CHF. The cardiologist lowers the ionotropic and chronotropic effect of the heart in CHF patients. The above methodology allows for the appropriate and desired effect in being able to titrate the medication and know how much medicine to administer to the patient by either decreasing or increasing the Valsartan dose. This is performed to achieve the necessary effect of pharmacotherapy with limiting the exacerbation of heart failure symptoms in such patients. It allows for healthcare providers to also know if the effects of the medications are adequate and they are in fact working appropriately on the microscopic endothelium level of the patient. As the months progressed in the patients above, the red line calculations indicate a decreased microvascular endothelial flow. This is evaluated by measuring a decrease in the a shift.
This correlates with a decrease in the ionotropic and chronotropic effect of the heart in these patients. This is the desired effect and outcome that the cardiologist is trying to achieve. The calculation of a, b, L, after “μ” is applied is objectively calculated in these CHF patients, allowing for the proper titration of maximum medication administration while limiting the side effects of the medications concurrently.

In the case of `CCCCC(=O)N(Cc1ccc(-c2ccccc2-c2nnn[nH]2)cc1)[C@H](C(=O)O)C(C)C` [Valsartan], the L (Patient A, April 2017) is reported as 70.87, the a (Patient A, April 2017) is reported as 5.05 and the b (Patient A, April 2017) is reported as 16.72. The L (Patient A, December 2016) was 70.63, the a (Patient A, December 2016) was 5.20 and the b (Patient A, December 2016) was 16.61. It also gave an L (Patient A, February 2017) of 70.24, an a (Patient A, February 2017) of 5.12 and a b (Patient A, February 2017) of 15.42. It also gave an L (Patient A, January 2017) of 71.68, an a (Patient A, January 2017) of 4.70 and a b (Patient A, January 2017) of 14.67. It also gave an L (Patient A, July 2017) of 71.63, an a (Patient A, July 2017) of 5.48 and a b (Patient A, July 2017) of 14.62. The L (Patient A, June 2017) was 69.91, the a (Patient A, June 2017) was 5.02 and the b (Patient A, June 2017) was 15.64. For the same compound, the L (Patient A, March 2017) was 70.42, the a (Patient A, March 2017) was 5.14 and the b (Patient A, March 2017) was 16.14. The L (Patient A, May 2017) was 71.99, the a (Patient A, May 2017) was 4.98 and the b (Patient A, May 2017) was 15.47. The L (Patient A, November 2016) was 70.10, the a (Patient A, November 2016) was 5.59 and the b (Patient A, November 2016) was 15.39. The “L (Wet)” value (Patient A, April 2017) was 70.72, the “a. Wet after “μ”” value (Patient A, April 2017) was 4.54 and the “b (Wet)” value (Patient A, April 2017) was 16.78. The “L (Wet)” value (Patient A, December 2016) was 69.98, the “a. Wet after “μ”” value (Patient A, December 2016) was 6.35 and the “b (Wet)” value (Patient A, December 2016) was 16.81. For the same compound, the “L (Wet)” value (Patient A, February 2017) was 70.12, the “a. Wet after “μ”” value (Patient A, February 2017) was 6.08 and the “b (Wet)” value (Patient A, February 2017) was 16.44. For the same compound, the “L (Wet)” value (Patient A, January 2017) was 71.76, the “a. Wet after “μ”” value (Patient A, January 2017) was 6.48 and the “b (Wet)” value (Patient A, January 2017) was 16.48. The “L (Wet)” value (Patient A, July 2017) was 70.04, the “a. Wet after “μ”” value (Patient A, July 2017) was 4.46 and the “b (Wet)” value (Patient A, July 2017) was 16.31. The “L (Wet)” value (Patient A, June 2017) was 70.54, the “a. Wet after “μ”” value (Patient A, June 2017) was 4.43 and the “b (Wet)” value (Patient A, June 2017) was 15.89. For the same compound, the “L (Wet)” value (Patient A, March 2017) was 69.42, the “a. Wet after “μ”” value (Patient A, March 2017) was 4.64 and the “b (Wet)” value (Patient A, March 2017) was 16.85. For the same compound, the “L (Wet)” value (Patient A, May 2017) was 69.79, the “a. Wet after “μ”” value (Patient A, May 2017) was 4.20 and the “b (Wet)” value (Patient A, May 2017) was 15.62. For the same compound, the “L (Wet)” value (Patient A, November 2016) was 68.40, the “a. Wet after “μ”” value (Patient A, November 2016) was 7.06 and the “b (Wet)” value (Patient A, November 2016) was 16.16. The L (Patient B, April 2017) was 73.95, the a (Patient B, April 2017) was 3.25 and the b (Patient B, April 2017) was 15.34. The L (Patient B, December 2016) was 72.77, the a (Patient B, December 2016) was 3.36 and the b (Patient B, December 2016) was 4.88. It also gave an L (Patient B, February 2017) of 74.52, an a (Patient B, February 2017) of 3.06 and a b (Patient B, February 2017) of 13.98. For the same compound, the L (Patient B, January 2017) was 74.06, the a (Patient B, January 2017) was 2.66 and the b (Patient B, January 2017) was 15.09. It also gave an L (Patient B, July 2017) of 74.23, an a (Patient B, July 2017) of 4.20 and a b (Patient B, July 2017) of 14.14. The L (Patient B, June 2017) was 74.05, the a (Patient B, June 2017) was 3.85 and the b (Patient B, June 2017) was 14.35. It also gave an L (Patient B, March 2017) of 74.43, an a (Patient B, March 2017) of 3.09 and a b (Patient B, March 2017) of 14.08. The L (Patient B, May 2017) was 73.52, the a (Patient B, May 2017) was 3.40 and the b (Patient B, May 2017) was 15.02. For the same compound, the L (Patient B, November 2016) was 73.44, the a (Patient B, November 2016) was 4.15 and the b (Patient B, November 2016) was 13.69.
